According to the NIST ThermoML archive (doi:10.1016/j.jct.2016.11.002):

What was measured:
[1] = xn = mol fraction of the nth substance listed; details: 100 kPa, Liquid; for speed of sound: Frequency=3 MHz, Single path-length method; for mass density: Vibrating tube method
[2] = refractive index (Na D-line) (dimensionless); xn = mol fraction of the nth substance listed; details: 100 kPa, Liquid, Standard Abbe refractometry

COCCO [2-methoxyethan-1-ol] + CCOC(=O)OCC
Details | mass density, [1] [kg/m3] | refractive index, [2] | speed of sound, [1] [m/s]
298.15 K, x2 = 0 | 960.32 | 1.4001 | 1342.1
298.15 K, x2 = 0.0645 | 960.64 | 1.3989 | 1322.5
298.15 K, x2 = 0.1406 | 961.01 | 1.3976 | 1302.2
298.15 K, x2 = 0.2248 | 961.49 | 1.3963 | 1282.2
298.15 K, x2 = 0.3025 | 961.99 | 1.3951 | 1265.8
298.15 K, x2 = 0.3928 | 962.65 | 1.3936 | 1248.7
298.15 K, x2 = 0.4994 | 963.51 | 1.3916 | 1231.2
298.15 K, x2 = 0.6007 | 964.44 | 1.3897 | 1216.9
298.15 K, x2 = 0.7212 | 965.66 | 1.3874 | 1202.5
298.15 K, x2 = 0.8496 | 967.12 | 1.3851 | 1189.7
303.15 K, x2 = 0 | 955.71 | 1.3981 | 1324.7
303.15 K, x2 = 0.0645 | 955.91 | 1.3969 | 1304.6
303.15 K, x2 = 0.1406 | 956.16 | 1.3957 | 1283.8
303.15 K, x2 = 0.2248 | 956.52 | 1.3943 | 1263.4
303.15 K, x2 = 0.3025 | 956.91 | 1.3931 | 1246.7
303.15 K, x2 = 0.3928 | 957.45 | 1.3915 | 1229.4
303.15 K, x2 = 0.4994 | 958.2 | 1.3895 | 1211.7
303.15 K, x2 = 0.6007 | 959.03 | 1.3876 | 1197.2
303.15 K, x2 = 0.7212 | 960.16 | 1.3853 | 1182.5
303.15 K, x2 = 0.8496 | 961.54 | 1.3829 | 1169.5
308.15 K, x2 = 0 | 951.08 | 1.3961 | 1307.4
308.15 K, x2 = 0.0645 | 951.16 | 1.395 | 1286.7
308.15 K, x2 = 0.1406 | 951.29 | 1.3938 | 1265.4
308.15 K, x2 = 0.2248 | 951.51 | 1.3924 | 1244.7
308.15 K, x2 = 0.3025 | 951.79 | 1.3911 | 1227.7
308.15 K, x2 = 0.3928 | 952.22 | 1.3894 | 1210.2
308.15 K, x2 = 0.4994 | 952.85 | 1.3875 | 1192.4
308.15 K, x2 = 0.6007 | 953.59 | 1.3855 | 1177.7
308.15 K, x2 = 0.7212 | 954.63 | 1.3832 | 1162.7
308.15 K, x2 = 0.8496 | 955.94 | 1.3807 | 1149.3
313.15 K, x2 = 0 | 946.42 | 1.3943 | 1290
313.15 K, x2 = 0.0645 | 946.39 | 1.3931 | 1268.8
313.15 K, x2 = 0.1406 | 946.49 | 1.3918 | 1247
313.15 K, x2 = 0.2248 | 946.58 | 1.3904 | 1226
313.15 K, x2 = 0.3025 | 946.66 | 1.389 | 1208.8
313.15 K, x2 = 0.3928 | 946.97 | 1.3874 | 1191.2
313.15 K, x2 = 0.4994 | 947.49 | 1.3854 | 1173.2
313.15 K, x2 = 0.6007 | 948.13 | 1.3834 | 1158.3
313.15 K, x2 = 0.7212 | 949.08 | 1.3811 | 1143
313.15 K, x2 = 0.8496 | 950.31 | 1.3786 | 1129.4
318.15 K, x2 = 0 | 941.72 | 1.3922 | 1272.7
318.15 K, x2 = 0.0645 | 941.57 | 1.3913 | 1251
318.15 K, x2 = 0.1406 | 941.44 | 1.39 | 1228.8
318.15 K, x2 = 0.2248 | 941.41 | 1.3885 | 1207.4
318.15 K, x2 = 0.3025 | 941.48 | 1.3871 | 1190.1
318.15 K, x2 = 0.3928 | 941.67 | 1.3853 | 1172.3
318.15 K, x2 = 0.4994 | 942.07 | 1.3833 | 1154.1
318.15 K, x2 = 0.6007 | 942.61 | 1.3814 | 1139.1
318.15 K, x2 = 0.7212 | 943.46 | 1.379 | 1123.5
318.15 K, x2 = 0.8496 | 944.62 | 1.3764 | 1109.7
323.15 K, x2 = 0 | 936.89 | 1.3902 | 1255.4
323.15 K, x2 = 0.0645 | 936.71 | 1.3894 | 1233.2
323.15 K, x2 = 0.1406 | 936.46 | 1.3881 | 1210.6
323.15 K, x2 = 0.2248 | 936.29 | 1.3865 | 1188.9
323.15 K, x2 = 0.3025 | 936.25 | 1.385 | 1171.4
323.15 K, x2 = 0.3928 | 936.34 | 1.3832 | 1153.5
323.15 K, x2 = 0.4994 | 936.62 | 1.3812 | 1135.1
323.15 K, x2 = 0.6007 | 937.08 | 1.3792 | 1119.9
323.15 K, x2 = 0.7212 | 937.86 | 1.3768 | 1104.2
323.15 K, x2 = 0.8496 | 938.96 | 1.3743 | 1090
